# Data as given in patent publication US20090036449A1, “Indazolesquaric Acid Derivatives as Chk1, Chk2 and Sgk Inhibitors” (priority 2005, published 2009).
# Molecular target: T1, SGK1 protein kinase (Homo sapiens, UniProt O00141)
# T1 sequence (O00141 1-431): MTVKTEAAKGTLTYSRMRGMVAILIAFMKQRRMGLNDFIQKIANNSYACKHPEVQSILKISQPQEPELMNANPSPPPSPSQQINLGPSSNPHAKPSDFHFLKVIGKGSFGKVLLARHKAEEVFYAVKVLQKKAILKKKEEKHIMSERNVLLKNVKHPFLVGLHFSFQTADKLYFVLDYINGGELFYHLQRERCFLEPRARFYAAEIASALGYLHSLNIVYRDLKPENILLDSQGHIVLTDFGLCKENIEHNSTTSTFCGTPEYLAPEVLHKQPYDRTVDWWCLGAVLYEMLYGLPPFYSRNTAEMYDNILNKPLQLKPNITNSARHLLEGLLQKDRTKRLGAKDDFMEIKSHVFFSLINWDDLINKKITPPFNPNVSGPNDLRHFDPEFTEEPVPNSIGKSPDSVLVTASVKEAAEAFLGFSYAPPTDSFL
# Experiment: SGK inhibition (filter binding method, analogously to CHK1, CHK2)
# Format: biochemical
# Protocol: (§1) 5-20 mU of CHK1 kinase (diluted in 20 mM MOPS pH7.5, 1 mM EDTA, 0.1% β-mercaptoethanol, 0.01% Brij-35, 5% glycerol, 1 mg/ml of BSA) are incubated for 30 min at room temperature in the presence of 30-200 μM CHKtide in 25.5 μl in 1-fold reaction buffer (8 mM MOPS pH7, 0.2 mM EDTA, 10 mM magnesium acetate, 0.02 mM ^33P-ATP [500-1000 cpm/pmol]). The reaction is stopped using 5 μl of 0.5 M ortho-phosphoric acid and filtered through P81 filter plates. After the filter plates have been washed a number of times, the bound radioactivity is determined in a scintillation counter.
# as §1, with “CHK2” for “CHK1”, “CHKtide ([…])” for “CHKtide”
# The inhibition of SGK1 protein kinase can be determined in the filter binding method (analogously to CHK1, CHK2).
row,IC50,Structure (SMILES)
1,0.01 µM,"O=C(Nc1n[nH]c2ccc(Nc3c(NCc4cccc(O)c4)c(=O)c3=O)cc12)c1ccccc1 [Compound 40, 3-(3-benzoylamino-1H-indazol-5-ylamino)-4-(3-hydroxybenzylamino)cyclobut-3-ene-1,2-dione]"
2,0.0615 µM,"COc1cccc(CNc2c(Nc3ccc4[nH]nc(NC(=O)c5ccccc5)c4c3)c(=O)c2=O)c1 [Compound 41, 3-(3-benzoylamino-1H-indazol-5-ylamino)-4-(3-methoxybenzylamino)cyclobut-3-ene-1,2-dione]"
3,0.01 µM,"COc1cccc([C@@H](C)Nc2c(Nc3ccc4[nH]nc(NC(=O)c5ccccc5)c4c3)c(=O)c2=O)c1 [Compound 42, 3-(3-benzoylamino-1H-indazol-5-ylamino)-4-[(R)-1-(3-methoxyphenyl)ethylamino]cyclobut-3-ene-1,2-dione]"
